Measured values taken from the supplement of paper PMC10307832.

Experiments:
Assay in all cases: relative viability (nuclei count vs DMSO), 5 days (fraction); higher = more cells survive
KN-93 + Olaparib = compound: CN(C/C=C/C1=CC=C(C=C1)Cl)CC2=CC=CC=C2N(CCO)S(=O)(=O)C3=CC=C(C=C3)OC [KN-93] + O=C(c1cc(Cc2n[nH]c(=O)c3ccccc23)ccc1F)N1CCN(C(=O)C2CC2)CC1 [Olaparib] (partner 8 µM)
Outline: (§1)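 Lung cancer cell lines, seeded in 1536-well plates, were treated the following day by pin tool with a single drug or with five library-drug doses (not always all listed) in √10 steps on top of a fixed anchor-drug dose. Cells were fixed and nuclei stained in one step after 5 days, and nuclei were counted. Relative viability is the nuclei count for treated wells divided by that for vehicle wells, reported as medians of duplicate plates.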

KN-93 + Dasatinib = compound: CN(C/C=C/C1=CC=C(C=C1)Cl)CC2=CC=CC=C2N(CCO)S(=O)(=O)C3=CC=C(C=C3)OC [KN-93] + Cc1nc(Nc2ncc(C(=O)Nc3c(C)cccc3Cl)s2)cc(N2CCN(CCO)CC2)n1 [Dasatinib] (partner 0.075 µM)
Outline: as §1

KN-93 + Foretinib = compound: CN(C/C=C/C1=CC=C(C=C1)Cl)CC2=CC=CC=C2N(CCO)S(=O)(=O)C3=CC=C(C=C3)OC [KN-93] + COc1cc2c(Oc3ccc(NC(=O)C4(C(=O)Nc5ccc(F)cc5)CC4)cc3F)ccnc2cc1OCCCN1CCOCC1 [Foretinib] (partner 0.25 µM)
Outline: as §1

KN-93 + Decitabine = compound: CN(C/C=C/C1=CC=C(C=C1)Cl)CC2=CC=CC=C2N(CCO)S(=O)(=O)C3=CC=C(C=C3)OC [KN-93] + Nc1ncn([C@H]2C[C@H](O)[C@@H](CO)O2)c(=O)n1 [Decitabine] (partner 2 µM)
Outline: as §1

KN-93 + Navitoclax = compound: CN(C/C=C/C1=CC=C(C=C1)Cl)CC2=CC=CC=C2N(CCO)S(=O)(=O)C3=CC=C(C=C3)OC [KN-93] + CC1(C)CCC(c2ccc(Cl)cc2)=C(CN2CCN(c3ccc(C(=O)NS(=O)(=O)c4ccc(N[C@H](CCN5CCOCC5)CSc5ccccc5)c(S(=O)(=O)C(F)(F)F)c4)cc3)CC2)C1 [Navitoclax] (partner 0.5 µM)
Outline: as §1

Cell Line | relative viability (KN-93 + Olaparib; first compound 0.08 µM) | relative viability (KN-93 + Olaparib; first compound 0.253 µM) | relative viability (KN-93 + Olaparib; first compound 2.53 µM) | relative viability (KN-93 + Olaparib; first compound 8 µM) | relative viability (KN-93 + Dasatinib; first compound 0.08 µM) | relative viability (KN-93 + Dasatinib; first compound 0.253 µM) | relative viability (KN-93 + Dasatinib; first compound 2.53 µM) | relative viability (KN-93 + Dasatinib; first compound 8 µM) | relative viability (KN-93 + Foretinib; first compound 0.08 µM) | relative viability (KN-93 + Foretinib; first compound 0.253 µM) | relative viability (KN-93 + Foretinib; first compound 2.53 µM) | relative viability (KN-93 + Foretinib; first compound 8 µM) | relative viability (KN-93 + Decitabine; first compound 0.08 µM) | relative viability (KN-93 + Decitabine; first compound 0.253 µM) | relative viability (KN-93 + Decitabine; first compound 2.53 µM) | relative viability (KN-93 + Decitabine; first compound 8 µM) | relative viability (KN-93 + Navitoclax; first compound 0.08 µM) | relative viability (KN-93 + Navitoclax; first compound 0.253 µM) | relative viability (KN-93 + Navitoclax; first compound 2.53 µM) | relative viability (KN-93 + Navitoclax; first compound 8 µM)
COR-L23 | 0.298 | 0.338 | 0.357 | 0.327 | 0.505 | 0.45 | 0.595 | 0.354 | 0.907 | 1.08 | 1.14 | 0.654 | 0.459 | 0.409 | 0.495 | 0.35 | 0.877 | 1.02 | 1.37 | 0.626
LXF-289 | 0.903 | 1.18 | 1.25 | 0.955 | 0.238 | 0.197 | 0.229 | 0.141 | 0.982 | 1.01 | 0.944 | 0.805 | 0.391 | 0.413 | 0.416 | 0.388 | 0.97 | 1.08 | 0.918 | 0.631
RERF-LC-KJ | 0.938 | 0.97 | 0.836 | 0.545 | 0.664 | 0.788 | 0.672 | 0.277 | 0.791 | 0.778 | 1.05 | 0.833 | 0.627 | 0.753 | 0.722 | 0.346 | 0.863 | 0.954 | 0.651 | 0.673
NCI-H1666 | 0.726 | 0.716 | 0.702 | 0.762 | 0.842 | 0.924 | 0.889 | 0.645 | 0.85 | 0.996 | 1.01 | 0.959 | 0.705 | 0.716 | 0.783 | 0.748 | 0.863 | 0.799 | 0.982 | 0.863
NCI-H520 | 0.312 | 0.312 | 0.282 | 0.272 | 0.203 | 0.197 | 0.258 | 0.155 | 0.885 | 0.952 | 0.768 | 0.711 | 0.596 | 0.599 | 0.538 | 0.458 |  | 1.13 | 1.23 | 0.878
LC-2-ad | 0.687 | 0.739 | 0.733 | 0.62 | 0.74 | 0.571 | 0.523 | 0.329 | 0.992 | 1.01 | 0.915 | 0.699 | 0.775 | 0.772 | 0.911 | 0.702 | 0.425 | 0.414 | 0.364 | 0.129
UMC-11 | 0.43 | 0.402 | 0.327 | 0.214 | 0.407 | 0.502 | 0.785 | 0.38 | 0.97 | 1.28 | 1.23 | 0.452 | 0.594 | 0.612 | 0.634 | 0.461 |  | 0.345 | 0.312 | 0.22
LOU-NH91 | 0.901 | 0.809 | 0.976 | 0.847 | 0.504 | 0.532 | 0.604 | 0.458 | 0.963 | 0.886 | 1.01 | 0.885 | 0.833 | 0.769 | 0.795 | 0.786 | 0.621 | 0.63 | 0.709 | 0.545
